{"source": "ChEMBL document CHEMBL5096157", "about": "“Metalloaminopeptidases of the Protozoan Parasite Plasmodium falciparum as Targets for the Discovery of Novel Antimalarial Drugs” (J Med Chem, 2021)", "key": {"[1]": {"assay": "Inhibition of Plasmodium falciparum M18 aspartyl aminopeptidase assessed as inhibition constant"}, "[2]": {"test_system": "Plasmodium falciparum", "assay": "Antimalarial activity against erythrocytic stage Plasmodium falciparum in human RBC assessed as inhibition of parasite growth incubated for 48 hrs by [3H]hypoxanthine incorporation assay", "type": "functional, organism-based, Red blood cell", "conditions": "Erythrocyte"}, "[3]": {"test_system": "Plasmodium falciparum", "assay": "Antimalarial activity against erythrocytic stage Plasmodium falciparum in human RBC assessed as inhibition of parasite growth at 10 uM incubated for 48 hrs by [3H]hypoxanthine incorporation assay relative to control", "type": "functional, Red blood cell", "set-up": "scale not given: the % may be the effect or the level left"}, "[4]": {"assay": "Inhibition of recombinant Plasmodium falciparum A-M1 assessed as inhibition constant using para-nitroanilide as substrate at 10 nM by spectrophotometer based method"}, "[5]": {"assay": "Inhibition of recombinant Plasmodium falciparum A-M17 assessed as inhibition constant using leucine para-nitroanilide as substrate at 60 nM by spectrophotometer based method"}, "[6]": {"test_system": "Plasmodium falciparum", "assay": "Antimalarial activity against Plasmodium falciparum 3D7 CQ-sensitive assessed as inhibition of growth by liquid scintillation counting method", "type": "functional, organism-based"}, "[7]": {"test_system": "Plasmodium falciparum", "assay": "Antimalarial activity against Plasmodium falciparum chloroquine-resistant FcB1 Columbia assessed as inhibition of growth by liquid scintillation counting method", "type": "functional, organism-based"}, "[8]": {"test_system": "Plasmodium chabaudi", "assay": "In vivo antiplasmodial activity against Plasmodium chabaudi chabaudi 864VD infected in BALB/c mouse assessed as reducing parasitaemia at 12 to 24 mg/kg, ip administered for 3 days after infection and measured after 25 days Giemsa staining based microscopic analysis relative to control", "type": "functional", "set-up": "scale not given: the % may be the effect or the level left", "conditions": "dose 12-24 mg/kg, time 25 day"}, "[9]": {"assay": "Clearance in CD-1 mouse at 3 mg/kg, iv measured after 8 hrs hrs by UHPLC analysis", "type": "ADME, organism-based", "conditions": "in vivo"}, "[10]": {"assay": "Half life in CD-1 mouse at 3 mg/kg, iv measured after 8 hrs hrs by UHPLC analysis", "type": "ADME, organism-based", "conditions": "in vivo"}, "[11]": {"assay": "Inhibition of recombinant Plasmodium falciparum A-M17 assessed as inhibition constant using H-Leu-NHMec as substrate"}, "[12]": {"test_system": "Plasmodium falciparum", "assay": "Antimalarial activity against Plasmodium falciparum D10 incubated for 48 hrs by [3H]hypoxanthine incorporation assay", "type": "functional, organism-based"}, "[13]": {"assay": "Inhibition of recombinant Plasmodium falciparum A-M1 using Leu-pNA as substrate by microplate reader analysis"}, "[14]": {"test_system": "Plasmodium falciparum", "assay": "Antimalarial activity against Plasmodium falciparum 3D7 CQ-sensitive incubated for 48 hrs by [3H]hypoxanthine incorporation assay based MicroBeta plate reader"}, "[15]": {"test_system": "Plasmodium falciparum", "assay": "Antimalarial activity against multidrug resistant Plasmodium falciparum Dd2 incubated for 48 hrs by [3H]hypoxanthine incorporation assay based MicroBeta plate reader"}, "[16]": {"test_system": "Plasmodium berghei", "assay": "In vivo antiplasmodial activity against Plasmodium berghei K173 infected in C57BL6 mouse assessed as mean survival time at 20 mg/kg, ip administered twice daily for 4 days after 2 hrs infection Giemsa staining based microscopic analysis relative to control", "type": "functional", "conditions": "time 4 day"}, "[17]": {"test_system": "Plasmodium yoelii", "assay": "In vivo antiplasmodial activity against Plasmodium yoelii 17X infected in C57BL6 mouse assessed as mean survival time at 20 mg/kg, ip administered twice daily for 4 days after 2 hrs infection Giemsa staining based microscopic analysis relative to control", "type": "functional", "conditions": "time 4 day"}, "[18]": {"test_system": "Plasmodium falciparum", "assay": "Antimalarial activity against Plasmodium falciparum NF54 wild-type assessed as reduction in proliferation incubated for 24 hrs by [3H]hypoxanthine incorporation assay", "type": "functional, organism-based"}, "[19]": {"test_system": "Plasmodium falciparum", "assay": "Antimalarial activity against multidrug resistant Plasmodium falciparum W2 assessed as reduction in proliferation incubated for 24 hrs", "type": "functional, organism-based", "conditions": "W2, 24 h"}, "[20]": {"assay": "Binding affinity to Plasmodium falciparum recombinant MetAP2 by Dex-Fum-mediated mammalian three-hybrid assay"}, "[21]": {"test_system": "Plasmodium falciparum", "assay": "Antimalarial activity against Plasmodium falciparum 3D7 incubated for 48 hrs by [3H]hypoxanthine incorporation assay", "type": "functional, organism-based"}, "[22]": {"test_system": "Plasmodium falciparum", "assay": "Antimalarial activity against Plasmodium falciparum K1 incubated for 48 hrs by [3H]hypoxanthine incorporation assay", "type": "functional, organism-based"}, "[23]": {"test_system": "Plasmodium chabaudi", "assay": "In vivo antiplasmodial activity against Plasmodium chabaudi chabaudi infected in C57/BL6J mouse assessed as reducing parasitaemia at 25 mg/kg, po administered for 4 days relative to control", "type": "functional", "set-up": "scale not given: the % may be the effect or the level left", "conditions": "time 4 day"}, "[24]": {"test_system": "Plasmodium chabaudi", "assay": "In vivo antiplasmodial activity against Plasmodium chabaudi chabaudi infected in C57/BL6J mouse assessed as reducing parasitaemia at 50 mg/kg, po administered for 4 days relative to control", "type": "functional", "set-up": "scale not given: the % may be the effect or the level left", "conditions": "time 4 day"}, "[25]": {"test_system": "Plasmodium chabaudi", "assay": "In vivo antiplasmodial activity against Plasmodium chabaudi chabaudi infected in C57/BL6J mouse assessed as reducing parasitaemia at 50 to 100 mg/kg, po administered for 4 days relative to control", "type": "functional", "set-up": "scale not given: the % may be the effect or the level left", "conditions": "dose 50-100 mg/kg, time 4 day"}, "[26]": {"assay": "Inhibition of Plasmodium falciparum alanyl aminopeptidase assessed as inhibition constant using H-Leu-NHMec as substrate by spectrofluorimeter based analysis"}, "[27]": {"test_system": "Plasmodium chabaudi", "assay": "In vivo antiplasmodial activity against Plasmodium chabaudi chabaudi infected in C57/BL6J mouse assessed as reducing parasitaemia at 100 mg/kg, po administered for 4 days relative to control", "type": "functional", "set-up": "scale not given: the % may be the effect or the level left", "conditions": "time 4 day"}}, "note": "Where “and” joins values, the source holds several entries; their conditions need not be identical. Equal values may be shown once.", "data": [{"smiles": "N[C@@H](CCC(=O)O)P(=O)(O)O", "values": [{"measurement": "Ki", "setting": "[1]", "value": 340, "unit": "nM"}]}, {"smiles": "Oc1ccc(CCNc2c3ccccc3nc3ccccc23)cc1O", "values": [{"measurement": "IC50", "setting": "[2]", "value": 1300, "unit": "nM"}, {"measurement": "Activity", "setting": "[3]", "value": 96, "unit": "%"}]}, {"smiles": "NC1CCc2cccc(-c3ccccc3)c2CC1=O", "note": "(stereo unspecified)", "values": [{"measurement": "Ki", "setting": "[4]", "value": 50, "unit": "nM"}, {"measurement": "Ki", "setting": "[5]", "value": "> 100000", "unit": "nM"}, {"measurement": "IC50", "setting": "[6]", "value": 11200, "unit": "nM"}, {"measurement": "IC50", "setting": "[7]", "value": 6500, "unit": "nM"}, {"measurement": "Activity", "setting": "[8]", "value": 40, "unit": "%"}, {"measurement": "clearance", "setting": "[9]", "value": 43, "unit": "mL/min/kg"}, {"measurement": "half-life", "setting": "[10]", "value": 2.2, "unit": "h"}]}, {"smiles": "CC(C)C[C@H](NC(=O)[C@@H](O)[C@H](N)Cc1ccc([N+](=O)[O-])cc1)C(=O)O", "values": [{"measurement": "Ki", "setting": "[11]", "value": 2.7, "unit": "nM"}, {"measurement": "IC50", "setting": "[12]", "value": 8000, "unit": "nM"}]}, {"smiles": "CC(C)CN(CCCN1CCN(CCCNc2ccnc3cc(Cl)ccc23)CC1)C(=O)CC(=O)NO", "values": [{"measurement": "IC50", "setting": "[13]", "value": 854, "unit": "nM"}]}, {"smiles": "Cc1nc(-c2ccccn2)nc(NCCc2ccccc2)c1Cl", "values": [{"measurement": "IC50", "setting": "[14]", "value": 1590, "unit": "nM"}, {"measurement": "IC50", "setting": "[15]", "value": 900, "unit": "nM"}, {"measurement": "Activity", "setting": "[16]", "value": 60, "unit": "%"}, {"measurement": "Activity", "setting": "[17]", "value": 80, "unit": "%"}]}, {"smiles": "CO[C@]12C(=O)CC[C@@]1(CO)[C@H]2[C@@]1(C)O[C@@H]1CC=C(C)C", "values": [{"measurement": "IC50", "setting": "[18]", "value": 160, "unit": "nM"}, {"measurement": "IC50", "setting": "[19]", "value": 270, "unit": "nM"}, {"measurement": "IC50", "setting": "[20]", "value": 116000, "unit": "nM"}]}, {"smiles": "CO[C@H](C(=O)NO)[C@@H](CC(C)C)C(=O)N[C@H](C(=O)O)c1ccccc1", "values": [{"measurement": "Ki", "setting": "[11]", "value": "25000 nM and 25700 nM"}, {"measurement": "IC50", "setting": "[21]", "value": 2000, "unit": "nM"}]}, {"smiles": "CO[C@H](C(=O)NO)[C@@H](CC(C)C)C(=O)N[C@H](C(=O)OC1CCCC1)c1ccccc1", "values": [{"measurement": "Ki", "setting": "[11]", "value": "75000 nM and 76000 nM"}, {"measurement": "IC50", "setting": "[21]", "value": 370, "unit": "nM"}, {"measurement": "IC50", "setting": "[22]", "value": 376, "unit": "nM"}, {"measurement": "Activity", "setting": "[23]", "value": 43, "unit": "%"}, {"measurement": "Activity", "setting": "[24]", "value": 52, "unit": "%"}, {"measurement": "Activity", "setting": "[25]", "value": 66, "unit": "%"}]}, {"smiles": "NC(CCc1ccccc1)P(=O)(O)CC(Cc1ccc(O)cc1)C(=O)O", "note": "(stereo unspecified)", "values": [{"measurement": "Ki", "setting": "[26]", "value": 232, "unit": "nM"}]}, {"smiles": "NCCC(=O)N(CCCN1CCN(CCCNc2ccnc3cc(Cl)ccc23)CC1)CC1CC1", "values": [{"measurement": "IC50", "setting": "[13]", "value": 21000, "unit": "nM"}]}, {"smiles": "CC(C)CN(CCCN1CCN(CCCNc2ccnc3cc(Cl)ccc23)CC1)C(=O)C(N)C(=O)NO", "note": "(stereo unspecified)", "values": [{"measurement": "IC50", "setting": "[13]", "value": 2500, "unit": "nM"}]}, {"smiles": "CO[C@H]1[C@H](C2(C)O[C@@H]2CC=C(C)C)[C@]2(CC[C@H]1OC(=O)NC(=O)CCl)CO2", "note": "(single isomer, unassigned)", "values": [{"measurement": "IC50", "setting": "[18]", "value": 2, "unit": "nM"}, {"measurement": "IC50", "setting": "[19]", "value": 3, "unit": "nM"}, {"measurement": "IC50", "setting": "[20]", "value": 2000, "unit": "nM"}]}, {"smiles": "CN1CCc2cccc3c2[C@@H]1Cc1ccc(O)c(O)c1-3", "note": "[(S)APOMORPHINE]", "values": [{"measurement": "IC50", "setting": "[2]", "value": 4000, "unit": "nM"}, {"measurement": "Activity", "setting": "[3]", "value": 87, "unit": "%"}]}, {"smiles": "COC(=O)[C@H](CC(C)C)NC(=O)[C@@H](O)[C@H](N)Cc1ccccc1", "note": "[BESTATIN METHYL ESTER]", "values": [{"measurement": "Ki", "setting": "[11]", "value": 138, "unit": "nM"}, {"measurement": "IC50", "setting": "[12]", "value": 20500, "unit": "nM"}]}, {"smiles": "CC(C)C[C@H](NC(=O)[C@@H](O)[C@H](N)Cc1ccccc1)C(=O)O", "note": "[UBENIMEX]", "values": [{"measurement": "IC50", "setting": "[12]", "value": 14900, "unit": "nM"}, {"measurement": "IC50", "setting": "[21]", "value": 5000, "unit": "nM"}, {"measurement": "Activity", "setting": "[27]", "value": 34, "unit": "%"}]}]}
